Measured values: patent US10717757B2, “Ketolides having antibacterial activity” (BIOPHARMATI SA, priority 2016, dated 2020)

Tests used:
CYP3A4 = CYP3A4 (Homo sapiens, UniProt P08684); test: Cytochrome P4503A4 inhibition assay, human liver microsomes, LC-MS/MS probe substrate method; conditions: for IC50: read-out: IC50 CYP3A4 (midazolam), human liver microsomes 0.1 mg/mL, 5 μM midazolam, 10 min; for CYP3A4 inhibition in comparison with solithromycin and ketoconazole: summary of Table 1
Method: Cytochrome P4503A4 Inhibition Assay for Determining IC50
The potential of the compound to inhibit CYP 3A4 was tested by the LC-MS/MS based probe substrate method using human liver microsomes. Midazolam or testosterone, which are metabolized to hydroxymidazolam or hydroxytestosterone by CYP 3A4, were the probe substrates used. […] NADPH was added as the cofactor. […] After incubation for ten minutes, the amount of 1-hydroxymidazolam or 6β-hydroxyltestosterone formed was determined by LC-MS/MS method as a measure of enzyme activity. Percent inhibition of enzyme activity was calculated based on the amount of metabolites (1-hydroxymidazolam or 6β-hydroxyltestosterone) formed for each sample relative to the basal control and plotted in a curve versus the compound concentration to obtain the IC50.

[1] = tested on: S. pneumoniae AUCC489, macrolide & penicillin resistant; test: Minimum inhibitory concentration (MIC), broth microdilution, AUCC489; format: cell-based, Streptococcus pneumoniae
Method: (§1) Protocols for Determining Minimum Inhibitory Concentration (MIC) of Test Compounds Against Streptococcus Pneumoniae Strains
(§2) The test strains are revived from frozen stock on blood agar plates and incubated at 35±2° C. for 18-20 hours in 5% CO2. Colonies are directly suspended from an overnight grown agar culture in CAMHB/saline and optical density adjusted to 0.5 McFarland turbidity standard (1-2×10^8 cfu/mL). Adjusted cultures are further diluted 1:100 using CAMHB such that after inoculation each well finally contains ˜5×10^5 cfu/mL. For broth dilution testing of Streptococcus species, CAMHB is supplemented with 2.5-5% v/v LHB. Colony counts of inoculum suspension is estimated by ten-fold serial dilutions and plating each dilution on agar plate. After incubation, the plates are observed for growth and microbial counts determined.
(§3) Compounds are weighed and dissolved in water/DMSO/other solvent to yield 1 mg/mL stock solution. Serial two-fold dilutions of the test compounds and reference antibiotics are prepared. 50 μL of the diluted drug solutions are dispensed in wells of microtiter trays (96 well).
(§4) To each of the wells of the microtiter tray, 50 μL of the diluted organism are inoculated to obtain a final inoculum density of ˜5×10^5 cfu/mL. Broth control, compound control and organism control wells are set up.
(§5) MIC testing are done in duplicates
(§6) MIC is defined as the lowest concentration of an antimicrobial agent that prevents visible growth of a microorganism in broth dilution susceptibility test.
(§7) After incubation period, growth of organism in the wells are detected by unaided eye facilitated by a viewing device. The amount of growth in the drug-containing wells are compared with the amount of growth in the organism-control wells.

[2] = tested on: S. pneumoniae AUCC488, macrolide & penicillin resistant; test: Minimum inhibitory concentration (MIC), broth microdilution, AUCC488; format: cell-based, Streptococcus pneumoniae
Method: as §1, §2, §3, §4, §5, §6, §7

[3] = tested on: S. pneumoniae ATCC 49619 (CLSI QC strain); test: Minimum inhibitory concentration (MIC), broth microdilution, QC strain; format: cell-based, Streptococcus pneumoniae; conditions: MIC in duplicates
Method: as §1, §2, §3, §4, §5, §6, §7

[4] = tested on: S. pneumoniae AUCC483, macrolide resistant & penicillin sensitive; test: Minimum inhibitory concentration (MIC), broth microdilution, AUCC483; format: cell-based, Streptococcus pneumoniae
Method: as §1, §2, §3, §4, §5, §6, §7

[5] = tested on: S. pneumoniae AUCC479, macrolide & penicillin sensitive; test: Minimum inhibitory concentration (MIC), broth microdilution, AUCC479; format: cell-based, Streptococcus pneumoniae
Method: as §1, §2, §3, §4, §5, §6, §7

Chain of CYP3A4 (P08684 whole entry): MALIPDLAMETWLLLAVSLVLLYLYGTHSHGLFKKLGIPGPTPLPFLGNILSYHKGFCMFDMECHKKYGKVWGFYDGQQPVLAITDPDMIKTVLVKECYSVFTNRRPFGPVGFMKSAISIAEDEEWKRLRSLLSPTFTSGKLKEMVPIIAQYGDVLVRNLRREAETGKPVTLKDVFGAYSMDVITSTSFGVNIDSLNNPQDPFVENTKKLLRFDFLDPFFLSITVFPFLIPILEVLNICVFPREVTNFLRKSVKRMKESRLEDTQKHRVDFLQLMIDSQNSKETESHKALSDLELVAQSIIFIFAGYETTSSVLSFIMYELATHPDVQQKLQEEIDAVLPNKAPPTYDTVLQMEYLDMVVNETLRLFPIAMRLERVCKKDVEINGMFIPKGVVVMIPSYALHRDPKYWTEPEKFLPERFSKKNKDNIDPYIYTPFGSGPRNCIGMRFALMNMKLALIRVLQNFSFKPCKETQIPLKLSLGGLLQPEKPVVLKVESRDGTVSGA

## (3aS,4R,7R,9R,10R,11R,13R,15R,15aR)-10-{[(2S,3R,4S,6R)-4-(dimethylamino)-3-hydroxy-6-methyloxan-2-yl]oxy}-4-ethyl-1-{[(2R)-1-ethylpyrrolidin-2-yl]methyl}-3a,7,9,11,13,15-hexamethyl-11-{[(2E)-3-(quinolin-3-yl)prop-2-en-1-yl]oxy}-tetradecahydro-1H-oxacyclotetradeca[4,3-d][1,3]oxazole-2,6,8,14-tetrone [Compound 13D]
CYP3A4
  IC50: 2.9 µM
  CYP3A4 inhibition in comparison with solithromycin and ketoconazole: lower IC50 inhibition of CYP3A4 inhibition
[1]
  MIC Strep. Pneumoniae AUCC 489 penR, macR cMLS: 0.12 to 0.25 mg/L
[2]
  MIC Strep. Pneumoniae AUCC 488 penR, macR M or iMLS: 0.25 to 0.5 mg/L
[3]
  MIC Strep. Pneumoniae ATCC49619 QC strain: 0.03 to 0.06 mg/L
[4]
  MIC Strep. Pneumoniae AUCC 483 penS, macR cMLS: 0.25 to 0.5 mg/L
[5]
  MIC Strep. Pneumoniae AUCC 479 penS, macS: 0.015 to 0.03 mg/L

## (3aS,4R,7R,9R,10R,11R,13R,15R,15aR)-10-{[(2S,3R,4S,6R)-4-(dimethylamino)-3-hydroxy-6-methyloxan-2-yl]oxy}-4-ethyl-1-{[(2S)-1-ethylpyrrolidin-2-yl]methyl}-3a,7,9,11,13,15-hexamethyl-11-{[(2E)-3-(quinolin-3-yl)prop-2-en-1-yl]oxy}-tetradecahydro-1H-oxacyclotetradeca[4,3-d][1,3]oxazole-2,6,8,14-tetrone [Compound 13C]
CYP3A4
  IC50: 1.8 µM
  CYP3A4 inhibition in comparison with solithromycin and ketoconazole: lower IC50 inhibition of CYP3A4 inhibition
[1]
  MIC Strep. Pneumoniae AUCC 489 penR, macR cMLS: 0.5 to 1 mg/L
[2]
  MIC Strep. Pneumoniae AUCC 488 penR, macR M or iMLS: 0.5 mg/L
[3]
  MIC Strep. Pneumoniae ATCC49619 QC strain: 0.06 to 0.12 mg/L
[4]
  MIC Strep. Pneumoniae AUCC 483 penS, macR cMLS: 0.5 to 1 mg/L
[5]
  MIC Strep. Pneumoniae AUCC 479 penS, macS: 0.03 mg/L

## (3aS,4R,7R,9R,10R,11R,13R,15R,15aR)-10-{[(2S,3R,4S,6R)-4-(dimethylamino)-3-hydroxy-6-methyloxan-2-yl]oxy}-4-ethyl-3a,7,9,11,13,15-hexamethyl-1-[2-(4-methylpiperazin-1-yl)ethyl]-11-{[(2E)-3-(quinolin-3-yl)prop-2-en-1-yl]oxy}-tetradecahydro-1H-oxacyclotetradeca[4,3-d][1,3]oxazole-2,6,8,14-tetrone [Compound 13K]
CYP3A4
  IC50: 6.5 µM
  CYP3A4 inhibition in comparison with solithromycin and ketoconazole: lower IC50 inhibition of CYP3A4 inhibition
[1]
  MIC Strep. Pneumoniae AUCC 489 penR, macR cMLS: 0.5 to 1 mg/L
[2]
  MIC Strep. Pneumoniae AUCC 488 penR, macR M or iMLS: 1 mg/L
[3]
  MIC Strep. Pneumoniae ATCC49619 QC strain: 0.06 to 0.12 mg/L
[4]
  MIC Strep. Pneumoniae AUCC 483 penS, macR cMLS: 0.5 to 1 mg/L
[5]
  MIC Strep. Pneumoniae AUCC 479 penS, macS: 0.03 to 0.06 mg/L

## (3aS,4R,7R,9R,10R,11R,13R,15R,15aR)-10-{[(2S,3R,4S,6R)-4-(dimethylamino)-3-hydroxy-6-methyloxan-2-yl]oxy}-4-ethyl-3a,7,9,11,13,15-hexamethyl-1-[2-(pyrrolidin-1-yl)ethyl]-11-{[(2E)-3-(quinolin-3-yl)prop-2-en-1-yl]oxy}-tetradecahydro-1H-oxacyclotetradeca[4,3-d][1,3]oxazole-2,6,8,14-tetrone [Compound 13I]
CYP3A4
  IC50: 2.1 µM
  CYP3A4 inhibition in comparison with solithromycin and ketoconazole: lower IC50 inhibition of CYP3A4 inhibition
[1]
  MIC Strep. Pneumoniae AUCC 489 penR, macR cMLS: 0.25 to 1 mg/L
[2]
  MIC Strep. Pneumoniae AUCC 488 penR, macR M or iMLS: 0.25 to 0.5 mg/L
[3]
  MIC Strep. Pneumoniae ATCC49619 QC strain: 0.03 to 0.06 mg/L
[4]
  MIC Strep. Pneumoniae AUCC 483 penS, macR cMLS: 0.25 to 1 mg/L
[5]
  MIC Strep. Pneumoniae AUCC 479 penS, macS: 0.015 to 0.03 mg/L
